How the values were obtained:
Type in all cases: in vivo
[1] = system: Alopecurus myosuroides (ALOMY); assay: A. Herbicidal pre-emergence efficacy, ALOMY; conditions: scored visually after about 3 weeks vs untreated controls
Outline: (§1)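 Pre-emergence soil-surface spray in sandy loam pots, WP/EC in water plus 0.5% additive, 600 L/ha. Visual % damage rating after about 3 weeks in greenhouse vs. untreated; 0% = control-like, 100% = dead plants. Rates up to 1280 g/ha.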

Kochia scoparia (KCHSC) = assay: B. Herbicidal post-emergence efficacy, KCHSC; conditions: for Post-emergence efficacy against KCHSC in %: rated visually after about 3 weeks; for Post-emergence efficacy against KCHSC: 1280 g/ha
Outline: (§2)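 Readout: visual % kill vs untreated, ~3 wk post-spray. Plants in sandy loam pots, treated at one-leaf stage; spray = WP/EC in water + 0.5% additive, 600 L/ha, dose ≤1280 g/ha.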

[2] = system: Abutilon theophrasti (ABUTH); assay: E. Herbicidal post-emergence efficacy, ABUTH
Outline: (§3)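 Greenhouse post-emergence spray, one-leaf stage (2–3 wk after sowing, sandy loam); WP/EC formulation, aqueous + 0.5% additive, 600 l/ha water; rates 320 g/ha or less. Visual rating ~3 wk later vs untreated; 0% = control-like, 100% = dead.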

Veronica persica (VERPE) = assay: E. Herbicidal post-emergence efficacy, VERPE
Outline: as §3

[3] = system: Echinochloa crus-galli (ECHCG); assay: B. Herbicidal post-emergence efficacy, ECHCG; conditions: rated visually after about 3 weeks
Outline: as §2

Setaria viridis (SETVI) = assay: E. Herbicidal post-emergence efficacy, SETVI
Outline: as §3

Lolium rigidum (LOLRI) = assay: C. Herbicidal pre-emergence efficacy, LOLRI; conditions: scored after about 3 weeks
Outline: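 Pre-emergence test: formulated compounds sprayed as aqueous suspension or emulsion with 0.5% additive at 600 l/ha onto soil covering sown seeds, at rates corresponding to 320 g/ha or less. After about 3 weeks in greenhouse, efficacy scored visually as percent versus untreated controls (100% = plants dead).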

[4] = system: Digitaria sanguinalis (DIGSA); assay: A. Herbicidal pre-emergence efficacy, DIGSA; conditions: scored visually after about 3 weeks vs untreated controls
Outline: as §1

| SMILES | Pre-emergence efficacy against ALOMY ([1]; 320 g/ha) [%] | Pre-emergence efficacy against ALOMY ([1]; 1280 g/ha) [%] | Post-emergence efficacy against KCHSC in % (Kochia scoparia (KCHSC); 80 g/ha) [%] | Post-emergence efficacy against KCHSC in % (Kochia scoparia (KCHSC); 320 g/ha) [%] | Post-emergence efficacy against KCHSC (Kochia scoparia (KCHSC)) [%] | Post-emergence efficacy against ABUTH in % ([2]; application rate 320 g/ha) [%] | Post-emergence efficacy against VERPE in % (Veronica persica (VERPE); application rate 80 g/ha) [%] | Post-emergence efficacy against VERPE in % (Veronica persica (VERPE); application rate 320 g/ha) [%] | Post-emergence efficacy against ECHCG in % ([3]; 80 g/ha) [%] | Post-emergence efficacy against ECHCG in % ([3]; 320 g/ha) [%] | Post-emergence efficacy against ECHCG in % ([3]; 1280 g/ha) [%] | Post-emergence efficacy against SETVI in % (Setaria viridis (SETVI); application rate 80 g/ha) [%] | Post-emergence efficacy against SETVI in % (Setaria viridis (SETVI); application rate 320 g/ha) [%] | Pre-emergence efficacy against LOLRI (Lolium rigidum (LOLRI); 320 g/ha) [%] | Post-emergence efficacy against ABUTH in % ([2]; application rate 80 g/ha) [%] | Pre-emergence efficacy against LOLRI (Lolium rigidum (LOLRI); 80 g/ha) [%] | Pre-emergence efficacy against DIGSA ([4]; 80 g/ha) [%] | Pre-emergence efficacy against DIGSA ([4]; 320 g/ha) [%] | Pre-emergence efficacy against DIGSA ([4]; 1280 g/ha) [%] |
| --- | --- | --- | --- | --- | --- | --- | --- | --- | --- | --- | --- | --- | --- | --- | --- | --- | --- | --- | --- |
| O=S(=O)(CCCCl)Oc1ccccc1Oc1ncc(Cl)cn1 [Example I-2] | 100 | 100 | 100 | 100 | 100 | 100 | 100 | 100 | 90 | 100 | 100 | 100 | 100 | 100 | – | – | – | – | – |
| O=S(=O)(CCCCl)Oc1ccccc1Oc1ncc(F)cn1 [Example I-5] | – | 90 | 100 | 100 | 100 | 90 | 90 | 100 | 90 | 100 | 100 | 90 | 100 | 80 | – | – | – | – | – |
| CCCCS(=O)(=O)Oc1ccccc1Oc1ncc(Cl)cn1 [Example I-6] | – | 90 | 90 | 90 | 90 | 90 | 90 | 90 | – | 90 | 90 | 90 | 100 | 100 | 80 | 80 | – | – | – |
| O=S(=O)(CCC(F)(F)F)Oc1ccccc1Oc1ncc(Cl)cn1 [Example I-8] | – | 90 | 90 | 90 | 90 | 100 | 90 | 100 | – | 90 | 100 | 90 | 90 | 100 | 90 | – | – | – | – |
| O=S(=O)(CCCC(F)(F)F)Oc1ccccc1Oc1ncc(Cl)cn1 [Example I-10] | 90 | 90 | 90 | 90 | 90 | 100 | 100 | 100 | 100 | 100 | 100 | 100 | 100 | 100 | 90 | 90 | – | – | – |
| O=S(=O)(CCCCl)Oc1c(F)cccc1Oc1ncc(Cl)cn1 [Example I-14] | 90 | 100 | 100 | 100 | 100 | 90 | 100 | 100 | – | 100 | 100 | 100 | 100 | 100 | – | – | 100 | 100 | 100 |
| O=S(=O)(CC1CC1)Oc1ccccc1Oc1ncc(Cl)cn1 [Example I-23] | – | 90 | 100 | 100 | 100 | 90 | 90 | 100 | – | 90 | 90 | 80 | 100 | 100 | – | – | 90 | 100 | 100 |
| O=S(=O)(CCC(F)(F)F)Oc1c(F)cccc1Oc1ncc(Br)cn1 [Example I-40] | 90 | 100 | 90 | 90 | 90 | 100 | 100 | 100 | – | – | – | 100 | 100 | 100 | 90 | – | 100 | 100 | 100 |
| O=S(=O)(CCCC(F)(F)F)Oc1c(F)cccc1Oc1ncc(Br)cn1 [Example I-41] | – | 100 | 90 | 90 | 90 | 100 | 100 | 100 | – | – | – | 100 | 100 | 100 | 90 | – | 100 | 100 | 100 |
| O=S(=O)(CCCC(F)(F)F)Oc1c(F)cccc1Oc1ncc(F)cn1 [Example I-42] | 100 | 100 | 90 | 100 | 100 | 100 | 100 | 100 | 100 | 100 | 100 | 100 | 100 | 100 | 80 | 100 | 100 | 100 | 100 |
| Cc1cccc(Oc2ncc(F)cn2)c1OS(=O)(=O)CCCC(F)(F)F [Example I-46] | – | 100 | – | – | 100 | 90 | 100 | 100 | 90 | 90 | 100 | – | 80 | 100 | – | – | 90 | 100 | 100 |
| O=S(=O)(CCC(F)(F)F)Oc1c(F)cccc1Oc1ncc(F)cn1 [Example I-47] | 100 | 100 | 100 | 100 | 100 | 100 | 100 | 100 | 90 | 100 | 100 | – | 100 | 100 | – | 90 | 100 | 100 | 100 |
| O=S(=O)(CCC(F)(F)F)Oc1c(F)cccc1Oc1ncc(Cl)cn1 [Example I-48] | 90 | 90 | 90 | 90 | 90 | 100 | 100 | 100 | – | 90 | 90 | 100 | 100 | 100 | 90 | 90 | 100 | 100 | 100 |
| O=S(=O)(CCCC(F)(F)F)Oc1c(F)cccc1Oc1ncc(Cl)cn1 [Example I-49] | – | 90 | 90 | 90 | 100 | 80 | 100 | 100 | 90 | 90 | 90 | 100 | 100 | 90 | 80 | 80 | 90 | 90 | 90 |

From patent US20240174618A1, “SUBSTITUTED (2-HETEROARYLOXYPHENYL)SULFONATES, SALTS THEREOF AND THEIR USE AS HERBICIDAL AGENTS” (Bayer Aktiengesellschaft, priority 2021, published 2024)
